According to ChEMBL document CHEMBL1201861, “Genomics of Drug Sensitity in Cancer screening data, Wellcome Trust Sanger Institute”:

Tests used:
Assay in all cases: cells
Type in all cases: functional, cell-based
T84 = conditions: Homo sapiens;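 further: growth inhibition measured with a cell viability readout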
Description: SANGER: Inhibition of human T84 cell growth in a cell viability assay.

VM-CUB-1 = conditions: Homo sapiens;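 further: cell viability assay measuring growth inhibition of the human VM-CUB-1 cell line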
Description: SANGER: Inhibition of human VM-CUB-1 cell growth in a cell viability assay.

HuO9 = conditions: Homo sapiens;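 further: growth inhibition of HuO9 cells, read out with a cell viability assay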
Description: SANGER: Inhibition of human HuO9 cell growth in a cell viability assay.

BCPAP = conditions: Homo sapiens;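 further: growth inhibition of BCPAP cells, read out in a cell viability assay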
Description: SANGER: Inhibition of human BCPAP cell growth in a cell viability assay.

KP-4 = conditions: Homo sapiens;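 further: human KP-4 cells, with growth inhibition read out through a cell viability assay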
Description: SANGER: Inhibition of human KP-4 cell growth in a cell viability assay.

OAW-42 = conditions: Homo sapiens;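 further: growth inhibition of OAW-42 cells, read out with a cell viability assay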
Description: SANGER: Inhibition of human OAW-42 cell growth in a cell viability assay.

HT55 = conditions: Homo sapiens;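 further: cell viability readout measuring growth inhibition of human HT55 cells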
Description: SANGER: Inhibition of human HT55 cell growth in a cell viability assay.

M059J = conditions: Homo sapiens;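 further: growth inhibition of M059J cells, read out with a cell viability assay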
Description: SANGER: Inhibition of human M059J cell growth in a cell viability assay.

EFO-27 = conditions: Homo sapiens;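 further: growth inhibition of EFO-27 cells, read out with a cell viability assay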
Description: SANGER: Inhibition of human EFO-27 cell growth in a cell viability assay.

H4 = conditions: Homo sapiens
Description: SANGER: Inhibition of human H4 cell growth in a cell viability assay.

NCI-H650 = conditions: Homo sapiens;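 further: growth inhibition of NCI-H650 cells, read out by a viability assay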
Description: SANGER: Inhibition of human NCI-H650 cell growth in a cell viability assay.

NCI-H2052 = conditions: Homo sapiens;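 further: growth inhibition of NCI-H2052 cells, read out with a cell viability assay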
Description: SANGER: Inhibition of human NCI-H2052 cell growth in a cell viability assay.

HN = conditions: Homo sapiens
Description: SANGER: Inhibition of human HN cell growth in a cell viability assay.

HSC-4 = conditions: Homo sapiens;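 further: growth inhibition of human HSC-4 cells, read out with a cell viability assay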
Description: SANGER: Inhibition of human HSC-4 cell growth in a cell viability assay.

KOSC-2 = conditions: Homo sapiens;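 further: growth inhibition of KOSC-2 cells, read out by a cell viability assay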
Description: SANGER: Inhibition of human KOSC-2 cell growth in a cell viability assay.

HOP-92 = conditions: Homo sapiens;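 further: cell viability readout, with IC50 reflecting inhibition of HOP-92 cell growth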
Description: SANGER: Inhibition of human HOP-92 cell growth in a cell viability assay.

AU565 = conditions: Homo sapiens;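 further: cell viability assay measuring growth inhibition of human AU565 cells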
Description: SANGER: Inhibition of human AU565 cell growth in a cell viability assay.

HCC1937 = conditions: Homo sapiens;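 further: growth inhibition measured with a cell viability read-out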
Description: SANGER: Inhibition of human HCC1937 cell growth in a cell viability assay.

ESS-1 = conditions: Homo sapiens;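 further: growth inhibition of human ESS-1 cells, read out by a cell viability assay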
Description: SANGER: Inhibition of human ESS-1 cell growth in a cell viability assay.

YAPC = conditions: Homo sapiens;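 further: growth inhibition of YAPC cells, measured with a cell viability assay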
Description: SANGER: Inhibition of human YAPC cell growth in a cell viability assay.

CAL-27 = conditions: Homo sapiens;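 further: Viability-based readout, IC50 reflecting inhibition of CAL-27 cell growth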
Description: SANGER: Inhibition of human CAL-27 cell growth in a cell viability assay.

IGROV-1 = conditions: Homo sapiens;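 further: reduction of IGROV-1 cell growth, read out with a viability assay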
Description: SANGER: Inhibition of human IGROV-1 cell growth in a cell viability assay.

Detroit 562 = conditions: Homo sapiens;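 further: growth inhibition of human Detroit 562 cells, read out by a cell viability assay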
Description: SANGER: Inhibition of human Detroit562 cell growth in a cell viability assay.

RO82-W-1 = conditions: Homo sapiens;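 further: growth inhibition of human RO82-W-1 cells, measured with a cell viability assay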
Description: SANGER: Inhibition of human RO82-W-1 cell growth in a cell viability assay.

HT-1080 = conditions: Homo sapiens
Description: SANGER: Inhibition of human HT-1080 cell growth in a cell viability assay.

BXPC-3 = conditions: Homo sapiens;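 further: growth inhibition of human BxPC-3 cells, read out by a cell viability assay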
Description: SANGER: Inhibition of human BxPC-3 cell growth in a cell viability assay.

EFM-19 = conditions: Homo sapiens;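 further: growth inhibition of human EFM-19 cells, measured in a cell viability assay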
Description: SANGER: Inhibition of human EFM-19 cell growth in a cell viability assay.

A2780 = conditions: Homo sapiens;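 further: growth inhibition of A2780 cells, read out with a cell viability assay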
Description: SANGER: Inhibition of human A2780 cell growth in a cell viability assay.

DU-145 = conditions: Homo sapiens
Description: SANGER: Inhibition of human DU-145 cell growth in a cell viability assay.

GP5d = conditions: Homo sapiens;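 further: growth inhibition of human GP5d cells, read out with a cell viability assay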
Description: SANGER: Inhibition of human GP5d cell growth in a cell viability assay.

LCLC-97TM1 = conditions: Homo sapiens;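 further: cell viability assay measuring growth inhibition of human LCLC-97TM1 cells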
Description: SANGER: Inhibition of human LCLC-97TM1 cell growth in a cell viability assay.

CWR22R = conditions: Homo sapiens, 22Rv1;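 further: growth inhibition of 22Rv1 cells, read out with a cell viability assay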
Description: SANGER: Inhibition of human 22RV1 cell growth in a cell viability assay.

HCC 2998 = conditions: Homo sapiens;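 further: growth inhibition of human HCC2998 cells, measured with a cell viability read-out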
Description: SANGER: Inhibition of human HCC2998 cell growth in a cell viability assay.

NCI-H2452 = conditions: Homo sapiens;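 further: growth inhibition of NCI-H2452 cells, read out with a cell viability assay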
Description: SANGER: Inhibition of human NCI-H2452 cell growth in a cell viability assay.

SK-MEL-24 = conditions: Homo sapiens;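 further: growth inhibition read out by a cell viability assay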
Description: SANGER: Inhibition of human SK-MEL-24 cell growth in a cell viability assay.

COLO-792 = conditions: Homo sapiens
Description: SANGER: Inhibition of human COLO-792 cell growth in a cell viability assay.

NCI-H1437 = conditions: Homo sapiens;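 further: growth inhibition of human NCI-H1437 cells, read out by a cell viability assay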
Description: SANGER: Inhibition of human NCI-H1437 cell growth in a cell viability assay.

NCI-H2087 = conditions: Homo sapiens;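 further: growth inhibition determined with a cell viability readout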
Description: SANGER: Inhibition of human NCI-H2087 cell growth in a cell viability assay.

NCI-H2009 = conditions: Homo sapiens;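 further: cell viability assay measuring inhibition of NCI-H2009 cell growth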
Description: SANGER: Inhibition of human NCI-H2009 cell growth in a cell viability assay.

HMV-2 cell line = conditions: Homo sapiens;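 further: growth inhibition of HMV-II cells, read out with a cell viability assay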
Description: SANGER: Inhibition of human HMV-II cell growth in a cell viability assay.

OVCAR-5 = conditions: Homo sapiens;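 further: growth inhibition of human OVCAR-5 cells, read out with a cell viability assay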
Description: SANGER: Inhibition of human OVCAR-5 cell growth in a cell viability assay.

NCI-H460 = conditions: Homo sapiens;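 further: cell viability assay scoring growth inhibition of human NCI-H460 cells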
Description: SANGER: Inhibition of human NCI-H460 cell growth in a cell viability assay.

LoVo = conditions: Homo sapiens;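 further: growth inhibition of human LoVo cells, read out with a cell viability assay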
Description: SANGER: Inhibition of human LoVo cell growth in a cell viability assay.

HT-3 = conditions: Homo sapiens;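 further: growth inhibition measured with a cell viability readout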
Description: SANGER: Inhibition of human HT-3 cell growth in a cell viability assay.

IGR-1 = conditions: Homo sapiens;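 further: growth inhibition of human IGR-1 cells, read out with a cell viability assay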
Description: SANGER: Inhibition of human IGR-1 cell growth in a cell viability assay.

HCC1419 = conditions: Homo sapiens;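 further: growth inhibition of human HCC1419 cells, read out as cell viability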
Description: SANGER: Inhibition of human HCC1419 cell growth in a cell viability assay.

NCI-H1755 = conditions: Homo sapiens;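 further: cell viability readout used to measure growth inhibition of NCI-H1755 cells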
Description: SANGER: Inhibition of human NCI-H1755 cell growth in a cell viability assay.

COLO-679 = conditions: Homo sapiens
Description: SANGER: Inhibition of human COLO-679 cell growth in a cell viability assay.

Kasumi 1 = conditions: Homo sapiens;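 further: growth inhibition of human Kasumi-1 cells, read out by a cell viability assay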
Description: SANGER: Inhibition of human KASUMI-1 cell growth in a cell viability assay.

D-336MG = conditions: Homo sapiens
Description: SANGER: Inhibition of human D-336MG cell growth in a cell viability assay.

Structure (SMILES): NC(=O)c1ncn([C@@H]2O[C@H](COP(=O)(O)O)[C@@H](O)[C@H]2O)c1N
- IC50 (T84): > 2000 µM
- IC50 (VM-CUB-1): 673000 nM
- IC50 (HuO9): 1970 µM
- IC50 (BCPAP): 733000 nM
- IC50 (KP-4): > 2000 µM
- IC50 (OAW-42): > 2000 µM
- IC50 (HT55): > 2 mM
- IC50 (M059J): > 2000 µM
- IC50 (EFO-27): 1680 µM
- IC50 (H4): > 2000 µM
- IC50 (NCI-H650): > 2000 µM
- IC50 (NCI-H2052): 1490 µM
- IC50 (HN): 252000 nM
- IC50 (HSC-4): 874000 nM
- IC50 (KOSC-2): 526000 nM
- IC50 (HOP-92): 1690 µM
- IC50 (AU565): 357000 nM
- IC50 (HCC1937): > 2 mM
- IC50 (ESS-1): > 2000 µM
- IC50 (YAPC): > 2000 µM
- IC50 (CAL-27): > 2000 µM
- IC50 (IGROV-1): > 2000 µM
- IC50 (Detroit 562): 1220 µM
- IC50 (RO82-W-1): > 2000 µM
- IC50 (HT-1080): > 2000 µM
- IC50 (BXPC-3): 1.35 mM
- IC50 (EFM-19): 343 µM
- IC50 (A2780): 1860 µM
- IC50 (DU-145): > 2000 µM
- IC50 (GP5d): 1770 µM
- IC50 (LCLC-97TM1): 917000 nM
- IC50 (CWR22R): > 2000 µM
- IC50 (HCC 2998): > 2 mM
- IC50 (NCI-H2452): > 2000 µM
- IC50 (SK-MEL-24): > 2000 µM
- IC50 (COLO-792): > 2 mM
- IC50 (NCI-H1437): 599000 nM
- IC50 (NCI-H2087): > 2000 µM
- IC50 (NCI-H2009): 1460 µM
- IC50 (HMV-2 cell line): > 2000 µM
- IC50 (OVCAR-5): > 2000 µM
- IC50 (NCI-H460): 1360 µM
- IC50 (LoVo): > 2000 µM
- IC50 (HT-3): 472000 nM
- IC50 (IGR-1): > 2 mM
- IC50 (HCC1419): > 2000 µM
- IC50 (NCI-H1755): 1.84 mM

Structure (SMILES): COc1cc(Nc2c(C#N)cnc3cc(OCCCN4CCN(C)CC4)c(OC)cc23)c(Cl)cc1Cl [BOSUTINIB]
- IC50 (T84): > 2 µM
- IC50 (VM-CUB-1): > 2000 nM
- IC50 (HuO9): > 2 µM
- IC50 (BCPAP): > 2000 nM
- IC50 (KP-4): > 2 µM
- IC50 (OAW-42): > 2 µM
- IC50 (HT55): > 0.002 mM
- IC50 (M059J): > 2 µM
- IC50 (EFO-27): 1.69 µM
- IC50 (H4): 1.24 µM
- IC50 (NCI-H650): > 2 µM
- IC50 (NCI-H2052): > 2 µM
- IC50 (HN): 1900 nM
- IC50 (HSC-4): 172 nM
- IC50 (KOSC-2): 1320 nM
- IC50 (HOP-92): > 2 µM
- IC50 (AU565): > 2000 nM
- IC50 (HCC1937): > 0.002 mM
- IC50 (ESS-1): > 2 µM
- IC50 (YAPC): > 2 µM
- IC50 (CAL-27): 0.929 µM
- IC50 (IGROV-1): 0.488 µM
- IC50 (Detroit 562): > 2 µM
- IC50 (RO82-W-1): > 2 µM
- IC50 (HT-1080): 0.553 µM
- IC50 (BXPC-3): > 0.002 mM
- IC50 (EFM-19): > 2 µM
- IC50 (A2780): > 2 µM
- IC50 (DU-145): > 2 µM
- IC50 (COLO-679): > 2000 nM
- IC50 (Kasumi 1): 723 nM
- IC50 (GP5d): > 2 µM
- IC50 (LCLC-97TM1): > 2000 nM
- IC50 (CWR22R): > 2 µM
- IC50 (HCC 2998): > 0.002 mM
- IC50 (NCI-H2452): > 2 µM
- IC50 (SK-MEL-24): > 2 µM
- IC50 (COLO-792): > 0.002 mM
- IC50 (NCI-H1437): > 2000 nM
- IC50 (NCI-H2087): > 2 µM
- IC50 (NCI-H2009): > 2 µM
- IC50 (HMV-2 cell line): > 2 µM
- IC50 (OVCAR-5): > 2 µM
- IC50 (NCI-H460): > 2 µM
- IC50 (LoVo): 1.98 µM
- IC50 (HT-3): > 2000 nM
- IC50 (IGR-1): > 0.002 mM
- IC50 (HCC1419): > 2 µM
- IC50 (D-336MG): > 2000 nM
- IC50 (NCI-H1755): > 0.002 mM

Structure (SMILES): CC[C@@]1(O)C(=O)OCc2c1cc1n(c2=O)Cc2cc3ccccc3nc2-1 [CAMPTOTHECIN]
- IC50 (T84): > 0.1 µM
- IC50 (VM-CUB-1): 2.21 nM
- IC50 (HuO9): 0.00288 µM
- IC50 (BCPAP): 3.04 nM
- IC50 (KP-4): 0.00316 µM
- IC50 (OAW-42): 0.00899 µM
- IC50 (M059J): 0.0041 µM
- IC50 (EFO-27): 0.081 µM
- IC50 (H4): 0.000615 µM
- IC50 (NCI-H650): 0.055 µM
- IC50 (NCI-H2052): 0.0283 µM
- IC50 (HN): 1.4 nM
- IC50 (HSC-4): 0.182 nM
- IC50 (KOSC-2): 4.39 nM
- IC50 (HOP-92): 0.00879 µM
- IC50 (AU565): 3.68 nM
- IC50 (ESS-1): 0.00708 µM
- IC50 (YAPC): 0.0296 µM
- IC50 (CAL-27): 0.00202 µM
- IC50 (IGROV-1): 0.0363 µM
- IC50 (Detroit 562): 0.0133 µM
- IC50 (RO82-W-1): 0.0149 µM
- IC50 (HT-1080): 0.000394 µM
- IC50 (A2780): 0.0029 µM
- IC50 (DU-145): > 0.1 µM
- IC50 (COLO-679): > 100 nM
- IC50 (Kasumi 1): 4.07 nM
- IC50 (GP5d): 0.0125 µM
- IC50 (LCLC-97TM1): 8.14 nM
- IC50 (CWR22R): 0.00931 µM
- IC50 (NCI-H2452): 0.0909 µM
- IC50 (SK-MEL-24): 0.0385 µM
- IC50 (NCI-H1437): 34.9 nM
- IC50 (NCI-H2087): 0.00507 µM
- IC50 (NCI-H2009): 0.0681 µM
- IC50 (HMV-2 cell line): 0.00889 µM
- IC50 (OVCAR-5): 0.0433 µM
- IC50 (NCI-H460): 0.0241 µM
- IC50 (LoVo): 0.0149 µM
- IC50 (HT-3): 0.212 nM
- IC50 (HCC1419): > 0.1 µM
- IC50 (D-336MG): 5.2 nM
